Where “and” joins values, the source holds several entries; their conditions need not be identical. Identical values can stand only once.
The molecules below were run against T1, human TG2 (Homo sapiens, UniProt P21980) (assay: fluorescent screening assay for human TG2). Settings: 20 nM TG2, 8 μM N,N-dimethylated Casein, 16 μM KxD, pH 7.4, 37° C.
T1 sequence (P21980 1-687): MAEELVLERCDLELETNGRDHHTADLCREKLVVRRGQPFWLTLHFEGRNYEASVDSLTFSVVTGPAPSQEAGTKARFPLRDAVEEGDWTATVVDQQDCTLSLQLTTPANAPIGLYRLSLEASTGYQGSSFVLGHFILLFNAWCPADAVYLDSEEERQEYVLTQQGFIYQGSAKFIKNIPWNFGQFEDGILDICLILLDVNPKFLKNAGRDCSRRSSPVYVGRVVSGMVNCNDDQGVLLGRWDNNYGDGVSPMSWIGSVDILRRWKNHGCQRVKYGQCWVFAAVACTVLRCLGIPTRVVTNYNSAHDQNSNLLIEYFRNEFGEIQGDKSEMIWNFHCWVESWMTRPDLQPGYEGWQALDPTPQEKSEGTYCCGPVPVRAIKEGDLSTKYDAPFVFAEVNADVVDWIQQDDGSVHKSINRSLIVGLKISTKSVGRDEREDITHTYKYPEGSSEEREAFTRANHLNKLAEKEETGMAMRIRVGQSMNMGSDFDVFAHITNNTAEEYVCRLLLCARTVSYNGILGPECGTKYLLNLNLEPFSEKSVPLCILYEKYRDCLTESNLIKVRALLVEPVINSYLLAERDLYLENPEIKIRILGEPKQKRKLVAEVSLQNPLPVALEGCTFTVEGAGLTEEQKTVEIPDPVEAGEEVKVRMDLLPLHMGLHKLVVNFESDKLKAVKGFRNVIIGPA
Assay type: biochemical
Procedure, shortened: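 20 nM TG2 with 8 μM N,N-dimethylated casein and 16 μM K×D in 25 mM Hepes pH 7.4, 250 mM NaCl, 2 mM MgCl2, 0.5 mM CaCl2, 0.2 mM DTT, 0.05% Pluronic F-127 at 37° C. Fluorescence (ex 350, em 535 nm) was read every 3 min for up to 2 h. Initial linear velocity served as activity.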

**Q.** Which IC50 does the source give for `C=CC(=O)Nc1ccc(S(=O)(=O)N(C)Cc2csc(N3CCOCC3)n2)cc1` [N-{4-[Methyl-(2-morpholin-4-yl-thiazol-4-ylmethyl)-sulfamoyl]-phenyl}-acrylamide] here?
**A.** 1000 to 25000 nM

**Q.** `C=CC(=O)Nc1ccc(S(=O)(=O)N2CCCC2c2ccc(C(F)(F)F)cc2)cc1` (stereo not shown) [N-{4-[2-(4-Trifluoromethyl-phenyl)-pyrrolidine-1-sulfonyl]-phenyl}-acrylamide] was tested. Which IC50 did it give?
**A.** 1000 to 25000 nM

**Q.** Which IC50 does the source give for `C=CC(=O)Nc1ccc(S(=O)(=O)N2CCN(c3cccc(C)n3)CC2)cc1` [N-{4-[4-(6-Methyl-pyridin-2-yl)-piperazine-1-sulfonyl]-phenyl}-acrylamide] here?
**A.** 100 to 1000 nM and < 100 nM

**Q.** How did the IC50 turn out when `C=CC(=O)Nc1ccc(S(=O)(=O)N2CCN(C(=O)OC(C)C)CC2)cc1` [4-(4-Acryloylamino-benzenesulfonyl)-piperazine-1-carboxylic acid isopropyl ester] was run?
**A.** 100 to 1000 nM and < 100 nM

**Q.** `C=CC(=O)Nc1ccc(S(=O)(=O)N2CCN(c3cnccn3)CC2)cc1` [N-[4-(2,3,5,6-Tetrahydro-[1,2′]bipyrazinyl-4-sulfonyl)-phenyl]-acrylamide] was tested. Which IC50 did it give?
**A.** < 100 nM and 100 to 1000 nM

**Q.** Which IC50 does the source give for `C=C(F)C(=O)Nc1ccc(S(=O)(=O)N2CCN(C(=O)OC(C)(C)C)CC2)cc1` [4-[4-(2-Fluoro-acryloylamino)-benzenesulfonyl]-piperazine-1-carboxylic acid tert-butyl ester] here?
**A.** 1000 to 25000 nM

**Q.** Which IC50 does the source give for `C=CC(=O)Nc1ccc(S(=O)(=O)N2CCN(c3nccc4ccccc34)CC2)cc1` [N-[4-(4-Isoquinolin-1-yl-piperazine-1-sulfonyl)-phenyl]-acrylamide] here?
**A.** < 100 nM and 100 to 1000 nM
